Data as given in patent US4005073A, “6-Acyl derivatives of aminopenicillanic acid” (priority 1974, dated 1977).
Where two headings read alike, the source gives them in different places.

Key:
Escherichia coli = assay: CD50 in the mouse, Escherichia coli; type: in vivo
Description: (§1) |CD50 (mg/kg) in the mouse

Pseudomonas Aeriginmos = assay: CD50 in the mouse, Pseudomonas Aeriginmos; type: in vivo
Description: as §1

Acute Toxicity = settings: mouse, in vivo
Description: as §1

Proteus Vulganis = assay: CD50 in the mouse, Proteus Vulganis; type: in vivo
Description: as §1

[1] = tested on: S. aureous (penicillin resistant); assay: CD50 in the mouse, S. aureous (penicillin resistant); type: in vivo
Description: as §1

[2] = Pseudomonas, po, read-out: CD50

| SMILES | ED50 (Escherichia coli; po, P.O.) [mg/kg] | ED50 (Pseudomonas Aeriginmos; [2]) [mg/kg] | LD50 (Acute Toxicity; po) [mg/kg] | ED50 (Proteus Vulganis; po, P.O.) [mg/kg] | ED50 (Escherichia coli; sc, S.C.) [mg/kg] | ED50 (Pseudomonas Aeriginmos; sc, Pseudomonas Aeriginmos, mouse, S.C., read-out: CD50 (the source's name)) [mg/kg] | ED50 ([1]; po, P.O.) [mg/kg] | ED50 ([1]; sc, S.C.) [mg/kg] | LD50 (Acute Toxicity) [mg/kg] | LD50 (Acute Toxicity; iv) [mg/kg] | ED50 (Pseudomonas Aeriginmos; Pseudomonas, sc, read-out: CD50) [mg/kg] | ED50 (Proteus Vulganis; sc, S.C.) [mg/kg] |
| --- | --- | --- | --- | --- | --- | --- | --- | --- | --- | --- | --- | --- |
| CC(C)CC(C(=O)N[C@@H]1C(=O)N2[C@@H]1SC(C)(C)[C@@H]2C(=O)O)C(=O)OCc1ccccc1 (some centres unmarked) [(1-benzyloxycarbonyl-3-methylbutyl)-penicillin sodium] | 9 | 142 | 2500 to 5000 | 8.9 |  |  |  |  |  |  |  |  |
| CCOC(=O)C(CC(C)C)C(=O)N[C@@H]1C(=O)N2[C@@H]1SC(C)(C)[C@@H]2C(=O)O (some centres unmarked) [(1-[ethoxycarbonyl-3-methylbutyl)]-penicillin sodium] | 14 | ~100 |  |  | 2.1 | ~80 | ~100 | 22 | 5000 | 2000 to 4000 |  |  |
| CC(C)CC(C(=O)O)C(=O)N[C@@H]1C(=O)N2[C@@H]1SC(C)(C)[C@@H]2C(=O)O (some centres unmarked) [(1-Carboxy-3-methyl-butyl)-penicillin di-sodium] |  |  |  |  | 2.4 |  |  | 34 |  | 2000 to 4000 | 124 | 6.2 |
